{
  "source": "patent US20050042747A1",
  "about": "“Hivgp120-induced bob/gpr15 activation” (priority 2001, published 2005)",
  "key": {"[1]": {"test_system": "gp120-induced calcium signaling in HT-29 cells", "experiment": "Inhibition of gp120-induced calcium signaling in HT-29 cells", "type": "cell-based, human", "details": "pretreatment", "protocol": "Calcium studies were done on HT-29 cells and Ghost (3) cells loaded with Fluo 4. The cells were placed in Locke's buffer containing 5 μg/ml Fluo 4 AM ester (Molecular Probes) for 20 to 30 minutes, then in Locke's buffer for an additional 30 minutes before testing. Various concentrations of gp120IIIB (X4 trophic), gp120CM235 (R5 trophic), gp120mN (X4 trophic), gp12093TH975 (nonsyncytium-inducing primary isolate from an asymptomatic subject, trophism undetermined but likely R5), and gp120SF2 (X4R5 trophic), ranging from 10 nM to less than 1 pM, were added in Locke's buffer.^6 The gp120 proteins were obtained from the AIDS Research Reagent Referral Program. Some HT-29 cells were given one of the following pretreatments: 50 μg/ml anti-Bob37 overnight, 1 μg/ml pertussis toxin overnight, or 4.6 μg/ml U73122 for one hour. With the HT-29 cells only, similar tests were also performed with SDF-1, MIP-1α, MIP-1β, and RANTES rather than gp120. The cells were visualized every 4 seconds in a confocal microscope, using 488 nm argon laser excitation and detection filters appropriate for fluorescein-like dyes.\nBlocking antibody experiments were done with HT-29 cells (monitoring calcium flux, microtubule loss, or transepithelial resistance), with Ghost (3) Bob cells (monitoring calcium flux) and peripheral blood mononuclear cells (monitoring calcium flux and HIV infection). Specifics of these protocols and the specific results are given herein. […] Antibody concentrations of 40 to 50 micrograms/ml overnight were needed for maximal effect.\nFor the first two or three days after plating, gp120 induces an immediate (within 4 seconds) calcium flux in undifferentiated HT-29 cells. The cells had previously been loaded with Fluo-4 AM ester (Molecular Probes, Eugene Oreg.) 5 micrograms/ml in the presence of Pleuronic F-127 0.02% in Locke's buffer for 30 minutes, then incubated at room temperature for an additional 30 minutes. Gp120IIIB was added while the cells were on an inverted confocal microscope using a 488 nm argon laser, with detection filters suitable for fluorescein-like dyes. […]"}, "[2]": {"test_system": "microtubules in HT-29 cells", "experiment": "Microtubule staining (acetylated tubulin) in HT-29 cells", "type": "cell-based, human", "details": "pretreatment before gp120", "protocol": "To examine the microtubules, HT-29 cells were treated with 10 nM gp120CM235 or 50 pM gp120IIIB, then fixed one hour later in 4 g/100 ml paraformaldehyde PBS, then stained with mouse anti acetylated tubulin (5 μg/ml, Sigma) by a method similar to that given above. Some cells were pretreated with 50 μg/ml antiBob37 overnight, 1 μg/ml pertussis toxin overnight, or 4.6 μg/ml U73122 for one hour before the gp120 was added. Untreated cells were also stained.\nSimilarly treated undifferentiated HT-29 cells (except that Fluo-4 was not added) were fixed in paraformaldehyde phosphate buffered saline one hour after gp120 treatment."}, "[3]": {"experiment": "GalCer-gp120 interactions at the air-water interface (surface pressure)", "type": "binding", "details": "gp120 5 nM in aqueous subphase", "protocol": "A monomolecular film of GalCer was prepared at the air-water interface and gp120 purified from either IIIB (full squares), SEN (open circles) or 89.6 (full circles) isolates was added in the aqueous subphase at a concentration of 5 nM. The kinetics of the surface pressure increase induced by the viral glycoproteins are shown.\nGalactosylceramide with an α-hydroxylated fatty acid (referred to as GalCer throughout this study) was either prepared from bovine brain (Sigma) or purified from HT-29-D4 membrane rafts (Fantini et al., 2000a). The surface pressure was measured with a microtensiometer (Kibron Inc., Finland) specially designed for studying protein-lipid interactions (Fantini et al., 2000a). The experiments were carried at 25° C. out in a laboratory equipped with a filtered air supply. A solution of GalCer was prepared extemporaneously in hexane:chloroform:methanol, 11:5:4 (v:v:v) at a concentration of 1 mg/ml. The lipid was carefully spread onto the meniscus of a pure water subphase (800 μl). The proteic ligand (GPR15/Bob peptides or HIV-1 gp120) was injected into the subphase with a 10 μl Hamilton syringe. The surface pressure was continuously measured as a function of time until reaching equilibrium corresponding to the maximal surface presure increase (Δπmax) expressed in mN/m.\nIn a recent study, it was shown that the interaction between GalCer and gp120 purified from HIV-1(IIIB) was very efficient, whereas gp120s from 89.6 and SEN isolates interacted very weakly (Hammache et al., 1998). The kinetics of this interaction are an important physicochemical parameter allowing the direct comparison of GalCer recognition by various gp120s. In the experiment shown in FIG. 11, gp120 purified from IIIB, SEN, or 89.6 was injected underneath a monomolecular film of GalCer at the air-water interface. The GalCer film mimics the topology of a GalCer raft as it is organized in the external leaflet of the plasma membrane. For this reason, the Langmuir film balance technique is one of the most sensitive and reliable for studying protein-glycolipid interactions (Maggio et al., 1994). […] The surface increase indicates a condensing effect of the gp120 on the lipidic film due to its interaction with GalCer molecules (Hammache et al., 1998). […] At this time however, the level of interaction indicated by the absolute increase of the surface pressure was identical to the one of gp120(IIIB). […] The GalCer-binding capacity of gp120(SEN) was reevaluated and shown to occur much more slowly, but not less efficiently, than of gp120(IIIB)."}, "HT-29-D4 cells [4]": {"test_system": "HT-29-D4 cells", "experiment": "Transepithelial resistance (TEER) of differentiated HT-29-D4 cells", "type": "cell-based, human", "details": "for TEER: 50 nM, serum-containing medium, mean SD of 4 experiments; for decrease of transepithelial resistance: after 16 hr"}, "[5]": {"test_system": "apical sodium/glucose cotransporter (SGLT1)", "experiment": "Sodium-dependent glucose transport activity (ΔIsc after α-methylglucose) in HT-29-D4 cells", "type": "cell-based, human", "details": "for ΔIsc after α-methylglucose treatment: 50 nM, 3 mM α-methylglucose", "protocol": "HT-29-D4 cells were cultured in two-compartment cell culture chambers on a polycarbonate filter (Transwell-clear, Catalog No. 3450, Costar) and analyzed for electrical parameters in modified custom made Ussing chambers as previously reported (Fantini et al., 1989). The chamber was maintained at 37° C. on a hot plate. Apical and basal compartments were filled with electrophysiological medium: 137 mM NaCl, 5.36 mM KCl, 0.4 mM Na2HPO4, 0.8 mM MgCl2, 1.8 mM CaCl2, 20 mM N-2-hydroxyethylpiperazine-N′-2-ethanesulfonic acid (HEPES), pH 7.4. Transepithelial potential difference was measured with Ag electrodes and continuously recorded using a voltage clamp unit (Physiologic Instrument). Bipolar current pulses (20 μA for 2 s, every 30 s) were passed through Ag electrodes to measure the transepithelial resistance (TEER), which was determined according to the Ohm's law (Delézay et al., 1997b). The sodium-dependent electrogenic glucose transport activity was measured as an increase of short-circuit current (ΔIsc) following apical incubation of HT-29-D4 cells with the nonmetabolizable analog of glucose α-methylglucose (Fantini et al., 2000a). Except when indicated, purified gp120s were incubated in the apical compartment of the cell culture chamber (total volume 1.5 ml instead of 10 ml for the basal compartment of the Ussing chamber device unit).\nDifferentiated HT-29-D4 cells cultured in Transwell chambers were either not treated (control) or treated with 50 nM of purified gp120 (IIIB isolate) for the time indicated in serum-containing culture medium. Transepithelial resistance (TEER) values and short-circuit current variations (ΔIsc) after incubation with 3 mM α-methylglucose (sodium-dependent glucose transport activity) were measured as described in Materials and Methods. The results are expressed as the mean SD of 4 separate experiments."}, "HT-29-D4 cells [6]": {"test_system": "HT-29-D4 cells", "experiment": "Cytoskeletal organization and ultrastructure of HT-29-D4 cells (confocal, electron microscopy)", "type": "cell-based, human", "protocol": "HT-29-D4 cells grown on glass coverslips were fixed with 4% paraformaldehyde (w/v) in 0.1M phosphate buffer, pH 7.4, for 30 min at room temperature. The cells were then treated with 50 mM […] (15 min), rinsed with phosphate buffer containing 1% bovine serum albumin (BSA), and permeabilized with 0.2% Triton X-100 in phosphate buffer containing 5% BSA (30 min). For α-tubulin staining, coverslips were incubated in a humid atmosphere at 4° C. for 4 hr with the primary antibody (5 μg/ml) in phosphate buffer containing 1% BSA. After washing, the cells were incubated with fluoresecin-conjugated secondary antibodies for 90 min at 4° C. The coverslips were mounted in a Mowiol solution and analyzed by confocal microscopy (Leica TCS inverted laser scanning microscope) as previously reported (Delézay et al., 1997b). […]\nThe α-tubulin labeling was particularly intense in the medium part of the cells where it formed a complex network of microtubules surrounding the nucleus (a, b). […] Therefore, the presence of such cysts in HT-29-D4 cell monolayer was carefully analyzed by single staining with rhodamine-plalloidin. […]\nNext, the ultrastructural changes induced by HIV-1 in differentiated HT-29-D4 cells was analyzed. […] The main ultrastructural change during incubation with virions or gp120 was the presence of intra- and inter-cellular lumina that could be detected in about 5% of the cells. […]"}},
  "note": "Entries after “also recorded” stand apart in the source; their conditions may differ.",
  "data": [
    {"compound": "pertussis toxin", "values": [
      {"measurement": "inhibition of gp120-induced calcium signaling, in words", "setting": "[1]", "result": "No significant gp120IIIB-induced calcium signaling; also recorded: inhibited"},
      {"measurement": "inhibition of gp120-induced microtubule loss", "setting": "[2]", "result": "inhibited and not"}
    ]},
    {"compound": "gp120(IIIB): surface envelope glycoprotein purified from HIV-1(IIIB) by lectin affinity chromatography", "values": [
      {"measurement": "interaction with GalCer film, in words", "setting": "[3]", "result": "exponential increase in the surface pressure"},
      {"measurement": "time to equilibrium of surface pressure", "setting": "[3]", "result": 45, "unit": "min"},
      {"measurement": "TEER", "setting": "HT-29-D4 cells [4]; 16 hr", "result": "300 ± 108", "unit": "Q · cm^2"},
      {"measurement": "TEER", "setting": "HT-29-D4 cells [4]; 48 hr", "result": "320 ± 267", "unit": "Q · cm^2"},
      {"measurement": "TEER enhancement (relative TEER)", "setting": "HT-29-D4 cells [4]; 20 min after addition, electrophysiological medium, n=3", "result": "1.60±0.17"},
      {"measurement": "decrease of transepithelial resistance", "setting": "HT-29-D4 cells [4]", "result": "greater than 80%"},
      {"measurement": "decrease of transepithelial resistance", "setting": "HT-29-D4 cells [4]; listed as gp120 (IIIB isolate)", "result": 81, "unit": "%"},
      {"measurement": "decrease of TEER", "setting": "HT-29-D4 cells [4]; after 48 hr", "result": 74, "unit": "%"},
      {"measurement": "time at which TEER had decreased to null values", "setting": "HT-29-D4 cells [4]; continuous recording, electrophysiological medium", "result": 12, "unit": "h"},
      {"measurement": "ΔIsc after α-methylglucose treatment", "setting": "[5]; 16 hr", "result": "0.35 ± 0.07", "unit": "μA · cm^−2"},
      {"measurement": "ΔIsc after α-methylglucose treatment", "setting": "[5]; 48 hr", "result": "0.29 ± 0.11", "unit": "μA · cm^−2"},
      {"measurement": "reduction of SGLT1 electrogenic activity", "setting": "[5]; after 16 hr", "result": 70, "unit": "%"},
      {"measurement": "decrease of SGLT1 activity", "setting": "[5]; after 48 hr", "result": 80, "unit": "%"},
      {"measurement": "cells with cysts / lumina", "setting": "HT-29-D4 cells [6]; 1 hr exposure", "result": "about 5%"},
      {"measurement": "α-tubulin staining", "setting": "HT-29-D4 cells [6]; 1 hr of incubation", "result": "dramatic decrease"}
    ]},
    {"compound": "COc1ccc2c(c1)CC[C@@H]1[C@@H]2CC[C@]2(C)[C@@H](NCCCCCCN3C(=O)C=CC3=O)CC[C@@H]12", "note": "[U73122]", "values": [
      {"measurement": "inhibition of gp120-induced calcium signaling, in words", "setting": "[1]", "result": "No significant gp120IIIB-induced calcium signaling; also recorded: inhibited"},
      {"measurement": "inhibition of gp120-induced microtubule loss", "setting": "[2]", "result": "inhibited and not"}
    ]}
  ]
}
